Non-standard residues stand in square brackets, D forms with d. Residues, ends and D or L forms follow the SMILES beside them. Hyp = O=C(O)[C@@H]1C[C@@H](O)CN1
Tests used:
collagenase type IV = assay: Collagenase degradation study of hydrogels; type: in vitro ADME; conditions: for hydrogel degradation state: w/ collagenase
Protocol: (§1) As a simple functional test of the collagen hydrogel mimetic, we compared its ability to be broken down by collagenase (type IV, Invitrogen) the primary component of which is MMP2, a protease known to specifically cleave between the X and Gly residues of an X-Y-Gly repeat found in a triple helix.^42 (Pro-Lys-Gly)4(Pro-Hyp-Gly)4(Asp-Hyp-Gly)4 hydrogels were prepared at a concentration of 2.0% by weight in phosphate buffer and treated with either collagenase in HBSS (Hank's Balanced Salt Solution) or HBSS alone. The samples were allowed to incubate at room temperature (approximately 20° C.), 30° C. and 37° C. Hydrogels of rat-tail collagen were prepared in the same fashion with and without collagenase.
(§2) Using the previously described gelation procedure, gels of (Pro-Lys-Gly)4(Pro-Hyp-Gly)4(Asp-Hyp-Gly)4 were prepared at a concentration of 2.0% by weight in 10 mM phosphate buffer. Directly after annealing, 100 μl of solution was pipetted into two wells of a 96-well cell culture plate and allowed to incubate at room temperature overnight. A 0.3% by weight collagenase type IV solution was prepared by dissolving 15.0 mg of non-sterile lyophilized enzyme into 5 ml of Hank's Balanced Salt Solution (HBSS). The solution was then filter sterilized using a 0.2 μm filter attached to a syringe. Enzyme and buffer were from Invitrogen (Carlsbad, Calif.). After gelation was complete, 150 μl of collagenase was added on top of one well and 150 μL of HBSS was added on the other serving as a control. Three plates were prepared and incubated at room temperature (about 20° C.), 30° C. and 37° C. Each condition was observed and imaged at 0, 1, 4, 6, 12, 24 and 48 hours after addition of the collagenase or HBSS. Plates containing rat-tail collagen gels at a concentration of 3.0% by weight were prepared and analyzed in an identical manner. Table 1 and Table 2 below show collagenase mediated degradation of (Pro-Lys-Gly)4(Pro-Hyp-Gly)4(Asp-Hyp-Gly)4 and rat-tail collagen hydrogels, respectively. Samples were tested at room temperature (approximately 20° C., 30° C. and 37° C.) with and without collagenase. […] Control samples of (Pro-Lys-Gly)4(Pro-Hyp-Gly)4(Asp-Hyp-Gly)4 at room temperature and 30° C. were intact after 48 hours. However at 37° C. the hydrogels dissolved after 24 hours due to the proximity of this temperature to the triple helices melting temperature.

[1] = Circular dichroism thermal unfolding; type: physicochemical
Protocol: All peptide concentrations were measured by weight. All samples were adjusted to pH 7 with sodium hydroxide prior to the addition of buffer and then annealed for 15 minutes at 85° C. Lastly, the samples were incubated at room temperature for at least 12 hours prior to characterization to ensure complete assembly. Time course rheological studies are given in FIG. 13 to support this time scale.
All spectra and thermal unfolding studies were performed on a Jasco J-810 spectropolarimeter equipped with a Peltier temperature control system. Quartz cells were used with pathlengths of 0.01 cm and 0.1 cm depending on the peptide concentration and buffer. Spectra were collected from 190-250 nm. Melting experiments were performed from 5 to 85° C., monitoring at 225 nm, and the first derivative of the thermal unfolding curve was taken in order to determine the melting temperature of the sample. The molar residual ellipticity (MRE) is calculated from the measured ellipticity using the equation:
[formula] where θ is the ellipticity in mdeg, m is the molecular weight in g/mol, c is the concentration in mg/ml, l is the pathlength of the cuvette in cm, and nr is the number of amino acids in the peptide. The spectrum for 1.0% by weight is only shown from 250-205 nm due to the increase in background noise for higher concentration samples at lower wavelengths.

[2] = Hydrogel control in HBSS without collagenase; type: physicochemical; conditions: no collagenase (HBSS), 2.0% by weight gel
Protocol: as §1, §2

[3] = room temperature (approximately 20° C.)

NCCCC[C@H](NC(=O)[C@@H]1CCCN1)C(=O)NCC(=O)N1CCC[C@H]1C(=O)N[C@@H](CCCCN)C(=O)NCC(=O)N1CCC[C@H]1C(=O)N[C@@H](CCCCN)C(=O)NCC(=O)N1CCC[C@H]1C(=O)N[C@@H](CCCCN)C(=O)NCC(=O)N1CCC[C@H]1C(=O)N1C[C@H](O)C[C@H]1C(=O)NCC(=O)N1CCC[C@H]1C(=O)N1C[C@H](O)C[C@H]1C(=O)NCC(=O)N1CCC[C@H]1C(=O)N1C[C@H](O)C[C@H]1C(=O)NCC(=O)N1CCC[C@H]1C(=O)N1C[C@H](O)C[C@H]1C(=O)NCC(=O)N[C@@H](CC(=O)O)C(=O)N1C[C@H](O)C[C@H]1C(=O)NCC(=O)N[C@@H](CC(=O)O)C(=O)N1C[C@H](O)C[C@H]1C(=O)NCC(=O)N[C@@H](CC(=O)O)C(=O)N1C[C@H](O)C[C@H]1C(=O)NCC(=O)N[C@@H](CC(=O)O)C(=O)N1C[C@H](O)C[C@H]1C(=O)NCC(=O)O [(Pro-Lys-Gly)4(Pro-Hyp-Gly)4(Asp-Hyp-Gly)4] (H-PKGPKGPKGPKGP[Hyp]GP[Hyp]GP[Hyp]GP[Hyp]GD[Hyp]GD[Hyp]GD[Hyp]GD[Hyp]G-OH; N-terminus assumed)
time after which hydrogel treated with collagenase was fully dissolved (collagenase type IV; 30° C.): 4 h
time after which hydrogel treated with collagenase was fully dissolved (collagenase type IV; 37° C.): 1 h
time after which hydrogel treated with collagenase was fully dissolved (collagenase type IV; [3]): 4 h
hydrogel degradation state (collagenase type IV; 20° C., 0 h, 2.0% by weight gel): intact
hydrogel degradation state (collagenase type IV; 20° C., 1 h, 2.0% by weight gel): intact
hydrogel degradation state (collagenase type IV; 20° C., 4 h, 2.0% by weight gel): dissolved
hydrogel degradation state (collagenase type IV; 20° C., 6 h, 2.0% by weight gel): dissolved
hydrogel degradation state (collagenase type IV; 20° C., 12 h, 2.0% by weight gel): dissolved
hydrogel degradation state (collagenase type IV; 20° C., 24 h, 2.0% by weight gel): dissolved
hydrogel degradation state (collagenase type IV; 20° C., 48 h, 2.0% by weight gel): dissolved
hydrogel degradation state (collagenase type IV; 30° C., 0 h, 2.0% by weight gel): intact
hydrogel degradation state (collagenase type IV; 30° C., 1 h, 2.0% by weight gel): intact
hydrogel degradation state (collagenase type IV; 30° C., 4 h, 2.0% by weight gel): dissolved
hydrogel degradation state (collagenase type IV; 30° C., 6 h, 2.0% by weight gel): dissolved
hydrogel degradation state (collagenase type IV; 30° C., 12 h, 2.0% by weight gel): dissolved
hydrogel degradation state (collagenase type IV; 30° C., 24 h, 2.0% by weight gel): dissolved
hydrogel degradation state (collagenase type IV; 30° C., 48 h, 2.0% by weight gel): dissolved
hydrogel degradation state (collagenase type IV; 37° C., 0 h, 2.0% by weight gel): intact
hydrogel degradation state (collagenase type IV; 37° C., 1 h, 2.0% by weight gel): dissolved
hydrogel degradation state (collagenase type IV; 37° C., 4 h, 2.0% by weight gel): dissolved
hydrogel degradation state (collagenase type IV; 37° C., 6 h, 2.0% by weight gel): dissolved
hydrogel degradation state (collagenase type IV; 37° C., 12 h, 2.0% by weight gel): dissolved
hydrogel degradation state (collagenase type IV; 37° C., 24 h, 2.0% by weight gel): dissolved
hydrogel degradation state (collagenase type IV; 37° C., 48 h, 2.0% by weight gel): dissolved
triple helix melting temperature ([1]; 10 mM phosphate buffer, pH 7, first derivative of CD unfolding curve at 225 nm): 40-41 °C
triple helix cooperative transition (melting) temperature ([1]; 1.0% by weight in phosphate): 41 °C
melting transition ([1]; gel-forming samples in additional buffers (water, Tris, PBS), pH 7): 40-41 °C
melting temperature ([1]; samples that did not form gels in additional buffers (water, Tris, PBS), pH 7): around 23 °C
hydrogel degradation state ([2]; 20° C., 0 h): intact
hydrogel degradation state ([2]; 20° C., 1 h): intact
hydrogel degradation state ([2]; 20° C., 4 h): intact
hydrogel degradation state ([2]; 20° C., 6 h): intact
hydrogel degradation state ([2]; 20° C., 12 h): intact
hydrogel degradation state ([2]; 20° C., 24 h): intact
hydrogel degradation state ([2]; 20° C., 48 h): intact
hydrogel degradation state ([2]; 30° C., 0 h): intact
hydrogel degradation state ([2]; 30° C., 1 h): intact
hydrogel degradation state ([2]; 30° C., 4 h): intact
hydrogel degradation state ([2]; 30° C., 6 h): intact
hydrogel degradation state ([2]; 30° C., 12 h): intact
hydrogel degradation state ([2]; 30° C., 24 h): intact
hydrogel degradation state ([2]; 30° C., 48 h): intact
hydrogel degradation state ([2]; 37° C., 0 h): intact
hydrogel degradation state ([2]; 37° C., 1 h): intact
hydrogel degradation state ([2]; 37° C., 4 h): intact
hydrogel degradation state ([2]; 37° C., 6 h): intact
hydrogel degradation state ([2]; 37° C., 12 h): intact
hydrogel degradation state ([2]; 37° C., 24 h): dissolved
hydrogel degradation state ([2]; 37° C., 48 h): dissolved

Rat-tail Collagen: collagen type I harvested from rat-tail tendon; hydrogels at 3.0% by weight used as comparator [reference compound]
time after which hydrogel treated with collagenase was fully dissolved (collagenase type IV; 30° C.): 4 h
time after which hydrogel treated with collagenase was fully dissolved (collagenase type IV; 37° C.): 1 h
time after which hydrogel treated with collagenase was fully dissolved (collagenase type IV; [3]): 4 h
hydrogel degradation state (collagenase type IV; 20° C., 0 h, 3.0% by weight gel): intact
hydrogel degradation state (collagenase type IV; 20° C., 1 h, 3.0% by weight gel): intact
hydrogel degradation state (collagenase type IV; 20° C., 4 h, 3.0% by weight gel): dissolved
hydrogel degradation state (collagenase type IV; 20° C., 6 h, 3.0% by weight gel): dissolved
hydrogel degradation state (collagenase type IV; 20° C., 12 h, 3.0% by weight gel): dissolved
hydrogel degradation state (collagenase type IV; 20° C., 24 h, 3.0% by weight gel): dissolved
hydrogel degradation state (collagenase type IV; 20° C., 48 h, 3.0% by weight gel): dissolved
hydrogel degradation state (collagenase type IV; 30° C., 0 h, 3.0% by weight gel): intact
hydrogel degradation state (collagenase type IV; 30° C., 1 h, 3.0% by weight gel): intact
hydrogel degradation state (collagenase type IV; 30° C., 4 h, 3.0% by weight gel): dissolved
hydrogel degradation state (collagenase type IV; 30° C., 6 h, 3.0% by weight gel): dissolved
hydrogel degradation state (collagenase type IV; 30° C., 12 h, 3.0% by weight gel): dissolved
hydrogel degradation state (collagenase type IV; 30° C., 24 h, 3.0% by weight gel): dissolved
hydrogel degradation state (collagenase type IV; 30° C., 48 h, 3.0% by weight gel): dissolved
hydrogel degradation state (collagenase type IV; 37° C., 0 h, 3.0% by weight gel): intact
hydrogel degradation state (collagenase type IV; 37° C., 1 h, 3.0% by weight gel): dissolved
hydrogel degradation state (collagenase type IV; 37° C., 4 h, 3.0% by weight gel): dissolved
hydrogel degradation state (collagenase type IV; 37° C., 6 h, 3.0% by weight gel): dissolved
hydrogel degradation state (collagenase type IV; 37° C., 12 h, 3.0% by weight gel): dissolved
hydrogel degradation state (collagenase type IV; 37° C., 24 h, 3.0% by weight gel): dissolved
hydrogel degradation state (collagenase type IV; 37° C., 48 h, 3.0% by weight gel): dissolved

Reference: patent US9228009B2, “Multi-hierarchical self-assembly of a collagen mimetic peptide” (WILLIAM MARSH RICE UNIVERSITY, priority 2011, dated 2016)
